Reference: patent EP0381989A1, “New 4'-epi-4'-amino anthracyclines” (FARMITALIA CARLO ERBA S.r.l., priority 1989, dated 1990)
Values after ≈ are worked out from the molar mass of the structure shown.

Legend:
[1] = system: LoVo (human colon adenocarcinoma); test: in vitro cytotoxicity (colony growth inhibition) on LoVo cells; conditions: for Cytotoxicity after 4h of treatment (IC50) LoVo: lovo cells; for IC50: Homo sapiens, LoVo, 4 h, read-out: Cytotoxicity after 4h of treatment (IC50) LoVo
Protocol: (§1) The biological activity of the compounds according to the inventio was tested in vitro against LoVo (human colon adenocarcinoma) and LoVo/DX cells in comparison with doxorubicin and 4-demethoxydaunorubicin (4-dem-DNR). Table 1. Table 1 -

LoVo/DX cells = test: in vitro cytotoxicity (colony growth inhibition) on LoVo/DX cells; conditions: for Cytotoxicity after 4h of treatment (IC50) LoVo/DX: lovo/dx cells; for R.I. = Resistance Index = (IC50 LoVo.DX)/(IC50 LoVo): ratio of IC50 on LoVo/DX to IC50 on LoVo, 4h of treatment; for IC50: Homo sapiens, LoVo/DX, read-out: Cytotoxicity after 4h of treatment (IC50) LoVo/DX; for Cytotoxicity after 4h of treatment (IC50) LoVo/DX / IC50: 4 h
Protocol: as §1

Compound: 4-demethoxy-6-deoxy-6-amino-3′-deamino-4′-deoxy-4′-epi-amino-daunorubicin [1h]
- Cytotoxicity after 4h of treatment (IC50) LoVo [1]: 0.004 µg/mL
- Cytotoxicity after 4h of treatment (IC50) LoVo/DX (LoVo/DX cells): 0.0086 µg/mL
- R.I. = Resistance Index = (IC50 LoVo.DX)/(IC50 LoVo) (LoVo/DX cells): 2.2

Compound: 4-demethyl-6-deoxy-3′-deamino-4′-deoxy-4′-epi-amino-doxorubicin [2d]
- Cytotoxicity after 4h of treatment (IC50) LoVo [1]: 0.0012 µg/mL
- Cytotoxicity after 4h of treatment (IC50) LoVo/DX (LoVo/DX cells): 0.0038 µg/mL
- R.I. = Resistance Index = (IC50 LoVo.DX)/(IC50 LoVo) (LoVo/DX cells): 3.2

Compound: CC(=O)[C@]1(O)Cc2c(O)c3c(c(O)c2[C@@H](O[C@H]2CC[C@@H](N)[C@H](C)O2)C1)C(=O)c1c(O)cccc1C3=O [1a, 4-demethyl-3′-deamino-4′-deoxy-4′-epi-amino-daunorubicin]
- IC50 [1]: 0.0011 µg/mL (≈ 0.00221 µM)
- IC50 (LoVo/DX cells): 0.0027 µg/mL (≈ 0.00543 µM)
- R.I. = Resistance Index = (IC50 LoVo.DX)/(IC50 LoVo) (LoVo/DX cells): 2.4

Compound: CC(=O)[C@]1(O)Cc2c(O)c3c(c(O)c2[C@@H](O[C@H]2CC[C@@H](N)[C@H](C)O2)C1)C(=O)c1c(F)cccc1C3=O [1c, 4-demethoxy-4-fluoro-3′-deamino-4′-deoxy-4′-epi-amino-daunorubicin]
- IC50 [1]: 0.0012 µg/mL (≈ 0.0024 µM)
- IC50 (LoVo/DX cells): 0.006 µg/mL (≈ 0.012 µM)
- R.I. = Resistance Index = (IC50 LoVo.DX)/(IC50 LoVo) (LoVo/DX cells): 5.0

Compound: C[C@@H]1O[C@@H](O[C@H]2C[C@](O)(C(=O)CO)Cc3c2c(O)c2c(c3[N+](=O)[O-])C(=O)c3ccccc3C2=O)CC[C@H]1N [2e, 4-demethoxy-11-deoxy-11-nitro-3′-deamino-4′-deoxy-4′-epi-amino-doxorubicin]
- IC50 [1]: 0.0484 µg/mL (≈ 0.0919 µM)
- IC50 (LoVo/DX cells): 0.205 µg/mL (≈ 0.389 µM)
- R.I. = Resistance Index = (IC50 LoVo.DX)/(IC50 LoVo) (LoVo/DX cells): 4.2

Compound: C[C@@H]1O[C@@H](O[C@H]2C[C@](O)(C(=O)CO)Cc3c(O)c4c(c([N+](=O)[O-])c32)C(=O)c2ccccc2C4=O)CC[C@H]1N [2f, 4-demethoxy-6-deoxy-6-nitro-3′-deamino-4′-deoxy-4′-epi-amino-doxorubicin]
- IC50 [1]: 0.116 µg/mL (≈ 0.22 µM)
- IC50 (LoVo/DX cells): 2.26 µg/mL (≈ 4.28 µM)
- R.I. = Resistance Index = (IC50 LoVo.DX)/(IC50 LoVo) (LoVo/DX cells): 19.4

Compound: C[C@@H]1O[C@@H](O[C@H]2C[C@](O)(C(=O)CO)Cc3c(N)c4c(c(O)c32)C(=O)c2ccccc2C4=O)CC[C@H]1N [2g, 4-demethoxy-11-deoxy-11-amino-3′-deamino-4′-deoxy-4′-epi-amino-doxorubicin]
- IC50 [1]: 0.0188 µg/mL (≈ 0.0379 µM)
- IC50 (LoVo/DX cells): 0.109 µg/mL (≈ 0.22 µM)
- R.I. = Resistance Index = (IC50 LoVo.DX)/(IC50 LoVo) (LoVo/DX cells): 5.8

Compound: C[C@@H]1O[C@@H](O[C@H]2C[C@](O)(C(=O)CO)Cc3c(O)c4c(c(N)c32)C(=O)c2ccccc2C4=O)CC[C@H]1N [2h, 4-demethoxy-6-deoxy-6-amino-3′-deamino-4′-deoxy-4′-epi-amino-doxorubicin]
- IC50 [1]: 0.0062 µg/mL (≈ 0.0125 µM)
- IC50 (LoVo/DX cells): 0.09 µg/mL (≈ 0.181 µM)
- R.I. = Resistance Index = (IC50 LoVo.DX)/(IC50 LoVo) (LoVo/DX cells): 14.5

Compound: CC(=O)[C@]1(O)Cc2c(O)c3c(c(O)c2[C@@H](O[C@H]2C[C@H](N)[C@H](O)[C@H](C)O2)C1)C(=O)c1ccccc1C3=O [4-dem-DNR, 4-demethoxydaunorubicin, reference compound]
- IC50 [1]: 0.02 µg/mL (≈ 0.0402 µM)
- IC50 (LoVo/DX cells): 0.125 µg/mL (≈ 0.251 µM)
- R.I. = Resistance Index = (IC50 LoVo.DX)/(IC50 LoVo) (LoVo/DX cells): 6

Compound: COc1cccc2c1C(=O)c1c(O)c3c(c(O)c1C2=O)C[C@@](O)(C(=O)CO)C[C@@H]3O[C@H]1C[C@H](N)[C@H](O)[C@H](C)O1 [Doxorubicin, doxorubicin, reference compound]
- IC50 [1]: 0.06 µg/mL (≈ 0.11 µM)
- IC50 (LoVo/DX cells): 2.18 µg/mL (≈ 4.01 µM)
- R.I. = Resistance Index = (IC50 LoVo.DX)/(IC50 LoVo) (LoVo/DX cells): 36
